Consider 38 molecules from patent US20100331348A1, “TROPANE DERIVATIVES USEFUL AS PESTICIDES” (SYNGENTA CROP PROTECTION, INC., priority 2007, published 2010).

The subject of experiment [1] is Puccinia recondita f.sp. tritici. Nature of the experiment: Puccinia recondita f.sp. tritici (wheat brown rust) leaf disk assay. To be noted: foliar, 216 h, preventive, nine days after inoculation, read-out: control of fungal infection, Puccinia recondita f.sp. tritici. The experiment is classed as in vivo.
Another experiment relates to Phytophthora infestans. Nature of the experiment: whole plant or invertebrate. The experiment is classed as in vivo. The settings on record: foliar, 96 h, read-out: control of fungal infection, Phytophthora infestans.
Experiment [2] deals with Erysiphe graminis f.sp. tritici. Nature of the experiment: Erysiphe graminis f.sp. tritici (wheat powdery mildew) leaf disk assay. The experiment is classed as in vivo. To be noted: Blumeria graminis, foliar, 96 h, preventive, four days after inoculation, read-out: control of fungal infection, Erysiphe graminis fsp. tritici.
The next experiment deals with Pyricularia oryzae. Nature of the experiment: whole plant or invertebrate. In kind it is in vivo. To be noted: foliar, 96 h.
The test system of another experiment is Plasmopara viticola. Nature of the experiment: Plasmopara viticola (downy mildew of grapevine) leaf disk assay. The experiment is classed as in vivo. The settings on record: foliar, 168 h, preventive, seven days after inoculation, read-out: control of fungal infection, Plasmopara viticola.
The test system of a further experiment is Aedes aegypti. Nature of the experiment: Aedes aegypti (Yellow fever mosquito) larvae test. The experiment is classed as in vivo. To be noted: 48 h.
Another experiment relates to Plutella xylostella. Nature of the experiment: Plutella xylostella (Diamond back moth) artificial diet test. To be noted: 120 h, read-out: control of Plutella xylostella.
[3] abbreviates: read-out: control of fungal infection, Pyricularia oryzae (at least 80% list).
Where [4] appears, read: read-out: control of fungal infection, Pyricularia oryzae (at least 60% list).

SMILES strings stand for the structures. Where two headings read alike, the source gives them in different places.

In the case of `c1cnc(OC2C[C@H]3CC[C@@H](C2)N3c2ncnc3sccc23)nc1` (some centres unmarked) [Example 1.2], the pest or weed control at 200 ppm (in experiment [1]; in the experiment with Phytophthora infestans; in experiment [2]; in the experiment with Pyricularia oryzae (setting [3])) was at least 80% in each case.

Turning to `Fc1cccc(OC2C[C@H]3CC[C@@H](C2)N3c2ncnc3sccc23)c1` (some centres unmarked) [Example 1.15], the pest or weed control at 200 ppm (in experiment [1]; in the experiment with Plasmopara viticola) was at least 80% throughout.

For the molecule `CSc1nc(C)cc(OC2C[C@H]3CC[C@@H](C2)N3c2ncnc3sccc23)n1` (some centres unmarked) [Example 1.77], the pest or weed control at 200 ppm (in experiment [2]; in the experiment with Plasmopara viticola) was at least 80% in each case.

On to `CCC(=O)c1ccc(OC2C[C@H]3CC[C@@H](C2)N3c2ncnc3sccc23)cc1` (some centres unmarked) [Example 1.256], for which the pest or weed control at 200 ppm (in experiment [1]; in the experiment with Phytophthora infestans) was at least 80% throughout. This molecule came in with a pest or weed control at 2 ppm in the experiment with Aedes aegypti of at least 80%.

`FC(F)(F)c1ccc(OC2C[C@H]3CC[C@@H](C2)N3c2ncnc3sccc23)nc1` (some centres unmarked) [Example 2.61]: the pest or weed control at 200 ppm in experiment [1] is at least 80%; in the experiment with Phytophthora infestans, at least 80%; in experiment [2], at least 80%; in the experiment on Pyricularia oryzae (setting [4]), at least 60%.

For the molecule `FC(F)(F)c1cccc(OC2C[C@H]3CC[C@@H](C2)N3c2ncnc3ccccc23)n1` (some centres unmarked) [Example 2.83], the pest or weed control at 200 ppm (in experiment [1]; in the experiment with Phytophthora infestans; in experiment [2]) was at least 80% in each case.

On to `CCCNC(=O)C=C1CC2CCC(C1)N2c1ncnc(CC)c1Cl` [Example 3.5], for which the pest or weed control at 200 ppm (in experiment [1]; with Plasmopara viticola) was at least 80% throughout.

Turning to `O=C(C=C1CC2CCC(C1)N2c1ncnc2sccc12)Nc1ccc(Cl)cc1` [Example 3.17], the pest or weed control at 200 ppm with Plasmopara viticola was at least 80%.

`Cc1cc(OCC=C2CC3CCC(C2)N3c2ncnc3sccc23)nc(C)n1` [Example 3.18]: the pest or weed control at 200 ppm (in experiment [1]; in the experiment with Plasmopara viticola) was at least 80% throughout. The pest or weed control at 2 ppm in the experiment on Aedes aegypti was at least 80%.

Take `CC(NC(=O)C=C1CC2CCC(C1)N2c1ncnc2sccc12)c1ccccc1` (centres unmarked) [Example 3.22]: the pest or weed control at 200 ppm (in experiment [1]; with Plasmopara viticola) was at least 80% throughout.

Turning to `CCc1ncnc(N2C3CCC2CC(=NOCc2ccccc2C)C3)c1Cl` [Example 5.10], the pest or weed control at 200 ppm (in experiment [1]; in the experiment on Phytophthora infestans; in experiment [2]; in the experiment with Plutella xylostella) was at least 80% throughout.

On to `CCc1ncnc(N2C3CCC2CC(=NOCc2nc(C)cc(Cl)n2)C3)c1Cl` [Example 5.13], for which the pest or weed control at 200 ppm (in experiment [2]; in the experiment with Plasmopara viticola) was at least 80% in each case.

For `CCc1ncnc(N2C3CCC2CC(=NOCc2ccccc2OC)C3)c1Cl` [Example 5.23], the pest or weed control at 200 ppm (in experiment [1]; in experiment [2]; in the experiment on Plasmopara viticola) was at least 80% throughout.

With `CCc1ncnc(N2C3CCC2CC(=NOCc2cccc(F)c2)C3)c1Cl` [Example 5.48], the pest or weed control at 200 ppm (in experiment [1]; with Phytophthora infestans; in experiment [2]) was at least 80% each time. The molecule further yielded a pest or weed control at 2 ppm with Aedes aegypti of at least 80%.

Regarding `CCc1ncnc(N2C3CCC2CC(=NOCc2ccc(NC(C)=O)cc2)C3)c1Cl` [Example 5.51], the pest or weed control at 200 ppm (in experiment [1]; with Phytophthora infestans; in experiment [2]) was at least 80% in each case.

With `CCc1ncnc(N2C3CCC2CC(=NOCc2ccc(F)c(F)c2F)C3)c1Cl` [Example 5.81], the pest or weed control at 200 ppm in experiment [1] was at least 80%; with Phytophthora infestans, at least 80%; in experiment [2], at least 80%; with Pyricularia oryzae (setting [4]) it was at least 60%. The molecule also showed a pest or weed control at 2 ppm with Aedes aegypti of at least 80%.

With `CCc1ncnc(N2C3CCC2CC(=NOCc2c(C)noc2C)C3)c1Cl` [Example 5.110], the pest or weed control at 200 ppm (in experiment [1]; in the experiment with Phytophthora infestans) was at least 80% throughout.

As to `CCc1ncnc(N2C3CCC2CC(=NOc2nc(Cl)ccc2C(F)(F)F)C3)c1Cl` [Example 5.117], the pest or weed control at 200 ppm with Plasmopara viticola was at least 80%.

On to `c1nc(N2C3CCC2CC(=NOCCC2CCCCC2)C3)c2ccsc2n1` [Example 5.136], for which the pest or weed control at 200 ppm in the experiment with Plasmopara viticola is at least 80%.

Turning to `c1ccc(CCON=C2CC3CCC(C2)N3c2ncnc3sccc23)cc1` [Example 5.140], the pest or weed control at 200 ppm in experiment [1] was at least 80%; with Phytophthora infestans, at least 80%; in experiment [2], at least 80%; in the experiment with Pyricularia oryzae (setting [4]) it was at least 60%; in the experiment on Pyricularia oryzae (setting [3]) it was at least 80%.

Regarding `Clc1cccc(CON=C2CC3CCC(C2)N3c2ncnc3sccc23)c1` [Example 5.150], the pest or weed control at 200 ppm was at least 80% in experiment [1], at least 80% with Phytophthora infestans, at least 80% in experiment [2] and at least 60% in the experiment on Pyricularia oryzae (setting [4]). In the experiment with Aedes aegypti, this molecule displayed a pest or weed control at 2 ppm of at least 80%.

Regarding `Clc1cc(ON=C2CC3CCC(C2)N3c2ncnc3sccc23)nc(Cl)n1` [Example 5.154], the pest or weed control at 200 ppm in the experiment with Plasmopara viticola is at least 80%.

Turning to `Brc1ccc(CON=C2CC3CCC(C2)N3c2ncnc3sccc23)cc1` [Example 5.158], the pest or weed control at 200 ppm (in experiment [1]; in the experiment on Phytophthora infestans; in experiment [2]; with Pyricularia oryzae (setting [3])) was at least 80% throughout.

Take `CC(=O)Nc1ccc(CON=C2CC3CCC(C2)N3c2ncnc3sccc23)cc1` [Example 5.159]: the pest or weed control at 200 ppm (in the experiment on Phytophthora infestans; in experiment [2]) was at least 80% throughout.

As to `Brc1cccc(CON=C2CC3CCC(C2)N3c2ncnc3sccc23)c1` [Example 5.181], the pest or weed control at 200 ppm in experiment [1] is at least 80%; in the experiment with Phytophthora infestans, at least 80%; in experiment [2], at least 80%; with Pyricularia oryzae (setting [4]), at least 60%. In the experiment on Aedes aegypti, this molecule gave a pest or weed control at 2 ppm of at least 80%.

For `Fc1ccc(CON=C2CC3CCC(C2)N3c2ncnc3sccc23)cc1F` [Example 5.185], the pest or weed control at 200 ppm in experiment [1] is at least 80%; in the experiment on Phytophthora infestans it was at least 80%; in experiment [2], at least 80%; in the experiment with Plutella xylostella, at least 80%; in the experiment with Pyricularia oryzae (setting [4]), at least 60%; in the experiment on Pyricularia oryzae (setting [3]), at least 80%. The pest or weed control at 2 ppm with Aedes aegypti was at least 80%.

Take `Cc1cc(C)c(CON=C2CC3CCC(C2)N3c2ncnc3sccc23)c(C)c1` [Example 5.189]: the pest or weed control at 200 ppm (in experiment [1]; with Phytophthora infestans; in experiment [2]) was at least 80% in each case.

Consider `N#Cc1ccccc1CON=C1CC2CCC(C1)N2c1ncnc2sccc12` [Example 5.191], for which the pest or weed control at 200 ppm (in experiment [1]; in experiment [2]; in the experiment on Plasmopara viticola) was at least 80% throughout. In the experiment with Aedes aegypti, this molecule showed a pest or weed control at 2 ppm of at least 80%.

As to `N#Cc1cccc(CON=C2CC3CCC(C2)N3c2ncnc3sccc23)c1` [Example 5.199], the pest or weed control at 200 ppm (in experiment [1]; in the experiment on Phytophthora infestans; in experiment [2]; in the experiment on Pyricularia oryzae (setting [3])) was at least 80% throughout.

Turning to `Cc1nc(CON=C2CC3CCC(C2)N3c2ncnc3sccc23)cs1` [Example 5.220], the pest or weed control at 200 ppm (in experiment [1]; with Phytophthora infestans; in experiment [2]) was at least 80% in each case.

As for `Fc1cc(F)c(F)c(CON=C2CC3CCC(C2)N3c2ncnc3sccc23)c1` [Example 5.227], the pest or weed control at 200 ppm in experiment [1] was at least 80%; with Phytophthora infestans, at least 80%; in experiment [2] it was at least 80%; in the experiment on Pyricularia oryzae (setting [4]), at least 60%. Further, in the experiment with Aedes aegypti, the pest or weed control at 2 ppm was at least 80%.

`Fc1cc(CON=C2CC3CCC(C2)N3c2ncnc3sccc23)cc(C(F)(F)F)c1` [Example 5.231]: the pest or weed control at 200 ppm in experiment [2] is at least 80%; in the experiment with Pyricularia oryzae (setting [4]), at least 60%; with Plasmopara viticola it was at least 80%.

Consider `Fc1cc(CON=C2CC3CCC(C2)N3c2ncnc3sccc23)cc(C(F)(F)F)c1F` [Example 5.235], for which the pest or weed control at 200 ppm in experiment [1] was at least 80%; in the experiment on Phytophthora infestans, at least 80%; in experiment [2], at least 80%; with Pyricularia oryzae (setting [4]), at least 60%.

In the case of `COC(=O)Cc1c(Cl)ncnc1ON=C1CC2CCC(C1)N2c1ncnc2sccc12` [Example 5.237], the pest or weed control at 200 ppm (in the experiment with Phytophthora infestans; in experiment [2]) was at least 80% throughout.

For `COc1cc(ON=C2CC3CCC(C2)N3c2ncnc3sccc23)nc(SC)n1` [Example 5.246], the pest or weed control at 200 ppm (in experiment [1]; in the experiment on Plasmopara viticola) was at least 80% each time.

For the molecule `Cc1nn(C)c2nccc(N3C4CCC3CC(=NOCc3ccccc3)C4)c12` [Example 5.253], in the experiment with Plasmopara viticola, the pest or weed control at 200 ppm was at least 80%.

In the case of `CCOC(=O)c1ccc(CON=C2CC3CCC(C2)N3c2ncnc3sccc23)o1` [Example 5.259], the pest or weed control at 200 ppm (in experiment [1]; in experiment [2]; in the experiment with Plasmopara viticola) was at least 80% each time.

On to `O=C(CC1CC2CCC(C1)N2c1ncnc2sccc12)Nc1ccc(Cl)cc1` (centres unmarked) [Example 7.12], for which the pest or weed control at 200 ppm (in experiment [1]; with Plasmopara viticola) was at least 80% each time.
